# Assay results from patent US10130695B2, “Compositions containing combinations of bioactive molecules derived from microbiota for treatment of disease” (priority 2013, dated 2018).
# B1: flagellin: flagellin (SEQ ID NO 1), an antigen highly abundant in bacteria belonging to Clostridium Clusters IV, XIVa, and XVIII (protein)
# chain: MVVQHNLQAMNSNRMLGITQKTASKSTEKLSSGYAINRAADNAAGLAISEKMRKQIRGLTQASTNAEDGISSVQTAEGALTEVHDMLQRMNELAIQAANGTNSEDDRSYIQDEIDQLTQEIDRVAETTKFNETYLLKGDTKNVDAMDYTYSYKAVTTNTVARASVLAAENTATGMSVSISFAANSGKVTAADSNNLAKAIRDQGFTITTSTQNGKVVYGLELNGSDAKANYTVSTVSMEAGTFKILNSNKQVVASVTISTTASFKKVSGMSQIVTAYSVSAAYATGDVYSLYDADGNAISANKLDKYFTAGGATEAGGIATTLSANSGVPKVYDVLGKEVSAVSIASTLVTAVKDKTAALKMNFHVGADGTDNNKIKINIEAMTAKSLGVNGLKVSGSSGTNATNAIEIIAGAIKKVSTQRSALGAVQNRLEHTINNLDNIVENTTAAESGIRDTDMATEMVKYSNANILSQAGQSMLAQSNQSNQGVLQLLQ
# Key:
# [1] = test system: Splenic naïve (CD44loCD62Lhi) CD4+ T cells; experiment: Treg induction in vitro (FACS); type: cell-based; conditions: anti-CD3/anti-CD28 mAb-coated beads, TGF-β; compared to no treatment control; FIG. 1
# Description: First, to gain mechanistic insight into the induction of Tregs by bacteria belonging to Clostridium Clusters IV, XIVa, and XVIII, germ-free mice were colonized with a cocktail of bacteria comprising bacterial strains belonging to Clostridium Cluster IV, bacterial strains belonging to Clostridium Cluster XIVa, and bacterial strains belonging to Clostridium Cluster XVIII (“Clostridium-colonized mice”). To identify metabolites potentially involved in Treg induction, the hundreds of metabolites present in the luminal composition of Clostridium-colonized, ex-germ free mice were painstakingly investigated with NMR-based metabolome analysis coupled with principal component analysis (PCA). […] The influence of acetate, propionate, and butyrate on Treg induction in vitro was measured as follows: Splenic naïve (CD44^loCD62L^hi) CD4+ T cells were stimulated with anti-CD3 and anti-CD28 mAb-coated beads and cultured in the presence of T-cell antigen receptor signaling and TGF-β with or without each of these short-chain fatty acids listed above.
# [2] = test system: OT-I CD8 T cells with colonic lamina propria CD4+CD25+ Treg cells; experiment: Cognate antigen-driven suppression assay; type: cell-based, mice; conditions: experiment repeated adding flagellin; after 3 days
# Protocol: Fourth, investigation was carried to determine whether bacteria belonging to Clostridium Clusters IV, XIVa, and XVIII provide bacterial antigens to T cells. To do this, assessment was carried out of the antigen specificity of Tregs accumulated in mice colonized by a mixture of 17strains belonging to Clostridium Clusters, […] (“17-mix”) using a cognate antigen-driven suppression assay. […] CD 11c+cells were isolated from spleens of SPF C57BL/6 mice, pulsed with 0.5 μM SIINFEKL (SEQ ID NO: 2) OT-I peptide alone or in combination with either of 5μM ISQAVHAAHAEINEAGR (SEQ ID NO: 3) OT-II peptide or autoclaved caecal contents from +17-mix mice, and plated at 5 x 10^4well. CD8OT-I T cells (Teff) were added to the CD11c+cell-seeded plates at 5 x 10^4/well. Then, CD4+CD25+T cells sorted from colonic LP of +17-mix mice (LP Treg) or from spleens of SPF OT-II mice (OT-II Treg) were added to the culture at the indicated ratio of Treg to Teff cells. After 3 days, all cells were harvested, stained with anti-CD4 and anti-CD8antibodies, and analysed by flow cytometry to enumerate the number of CD8 OT-I T cells. Depicted data in FIG. 4b represent average of duplicates. […]
molecule,measurement,setting,value
CC(=O)O [acetate],differentiation of Treg cells,[1],enhanced differentiation of Treg cells
CCC(=O)O [propionate],differentiation of Treg cells,[1],enhanced differentiation of Treg cells
B1,colonic Lamina Propria Treg cells specific for the antigen,[2],colonic Lamina Propria Treg cells specific for flagellin were isolated
